According to PMC5472064 (Organic & biomolecular chemistry, 2017):
Where two headings read alike, the source gives them in different places.

Target: p97 ATPase WT (Homo sapiens, UniProt P55072)
Assay: ADPGlo biochemical assay of p97 ATPase inhibition
Details: for effect of structural change on activity/potency (in words): p97 inhibition, versus indole NH / amide analogs

Sequence of p97 ATPase WT (P55072 whole entry): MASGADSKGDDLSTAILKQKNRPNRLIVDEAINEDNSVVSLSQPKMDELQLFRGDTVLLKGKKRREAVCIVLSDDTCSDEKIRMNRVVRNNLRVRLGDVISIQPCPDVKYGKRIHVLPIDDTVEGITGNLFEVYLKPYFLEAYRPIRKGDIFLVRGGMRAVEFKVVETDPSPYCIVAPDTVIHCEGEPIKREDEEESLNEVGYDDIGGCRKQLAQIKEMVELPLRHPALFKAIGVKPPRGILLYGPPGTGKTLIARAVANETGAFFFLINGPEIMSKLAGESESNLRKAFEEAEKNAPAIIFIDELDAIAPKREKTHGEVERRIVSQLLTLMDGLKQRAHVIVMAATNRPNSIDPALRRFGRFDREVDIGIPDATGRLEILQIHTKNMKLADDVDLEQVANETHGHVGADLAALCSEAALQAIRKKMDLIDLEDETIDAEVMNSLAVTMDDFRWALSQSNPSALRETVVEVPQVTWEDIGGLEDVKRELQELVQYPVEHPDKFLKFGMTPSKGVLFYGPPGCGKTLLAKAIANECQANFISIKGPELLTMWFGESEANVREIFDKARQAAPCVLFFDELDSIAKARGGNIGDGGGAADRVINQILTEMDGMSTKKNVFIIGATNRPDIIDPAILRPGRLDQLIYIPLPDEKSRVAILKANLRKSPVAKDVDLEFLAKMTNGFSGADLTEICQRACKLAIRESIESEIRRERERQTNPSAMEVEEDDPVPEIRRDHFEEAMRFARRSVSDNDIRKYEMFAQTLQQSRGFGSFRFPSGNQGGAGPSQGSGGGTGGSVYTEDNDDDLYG

IC50	Compound	other results
	CC(C)N1CCN(CCNC2CCN(c3cccc(-c4cc5cc(F)ccc5[nH]4)c3)CC2)CC1 [UPCDC30245]	IC50 (read-out: ADPGlo IC50, 20 nM p97 ATPase WT, 100 μM ATP, repeated multiple times): 55 nM
130 nM	COC(=O)c1ccc2[nH]c(-c3cccc(N4CCC(NCCN5CCN(C(C)C)CC5)CC4)c3)cc2c1 [UPCDC30341, Methyl 2-(3-(4-((2-(4-isopropylpiperazin-1-yl)ethyl)amino)piperidin-1-yl)phenyl)-1H-indole-5-carboxylate]	
190 nM	CC(C)N1CCN(CCNC2CCN(c3cccc(-c4cc5cc(Cl)ccc5[nH]4)c3)CC2)CC1 [UPCDC30317, 1-(3-(5-Chloro-1H-indol-2-yl)phenyl)-N-(2-(4-isopropylpiperazin-1-yl)ethyl)piperidin-4-amine]	
	CC(C)N1CCN(CCNC2CCN(c3cccc(-c4cc5cc(C(=O)N(C)C)ccc5[nH]4)c3)CC2)CC1 [UPCDC30368, 2-(3-(4-((2-(4-Isopropylpiperazin-1-yl)ethyl)amino)piperidin-1-yl)phenyl)-N,N-dimethyl-1H-indole-5-carboxamide]	effect of structural change on activity/potency (in words): near loss of all potency
50 nM	Cc1ccc(N2CCC(NCCN3CCN(C(C)C)CC3)CC2)cc1-c1cc2cc(F)ccc2[nH]1 [UPCDC30346, 1-(3-(5-Fluoro-1H-indol-2-yl)-4-methylphenyl)-N-(2-(4-isopropylpiperazin-1-yl)ethyl)piperidin-4-amine]	
38500 nM	CC(C)N1CCN(CCNC2CCN(c3cccc(-c4nc5ccccc5[nH]4)c3)CC2)CC1 [UPCDC30250, 1-(3-(1H-Benzo[d]imidazol-2-yl)phenyl)-N-(2-(4-isopropylpiperazin-1-yl)ethyl)piperidin-4-amine]	reduction of binding affinity (benzimidazole versus indole): > 2 orders of magnitude
87 nM	Cc1ccc(N2CCC(NCCN3CCN(C(C)C)CC3)CC2)cc1-c1cc2cc(C#N)ccc2[nH]1 [UPCDC30361, 2-(5-(4-((2-(4-Isopropylpiperazin-1-yl)ethyl)amino)piperidin-1-yl)-2-methylphenyl)-1H-indole-5-carbonitrile]	
4740 nM	CC(C)N1CCN(CCNC2CCN(c3cccc(-c4cc5cc(F)cnc5[nH]4)c3)CC2)CC1 [UPCDC30381, 1-(3-(5-Fluoro-1H-pyrrolo[2,3-b]pyridin-2-yl)phenyl)-N-(2-(4-isopropylpiperazin-1-yl)ethyl)piperidin-4-amine]	
5200 nM	CC(C)N1CCN(CCNC2CCN(c3cccc(-c4ccc5ccccc5c4)c3)CC2)CC1 [UPCDC30222, N-(2-(4-Isopropylpiperazin-1-yl)ethyl)-1-(3-(naphthalen-2-yl)phenyl)piperidin-4-amine]	effect of structural change on activity/potency (in words): greatly diminishes
4000 nM	CC(C)N1CCN(CCNC2CCN(c3cccc(-c4cc5cnccc5[nH]4)c3)CC2)CC1 [UPCDC30345, 1-(3-(1H-Pyrrolo[3,2-c]pyridin-2-yl)phenyl)-N-(2-(4-isopropylpiperazin-1-yl)ethyl)piperidin-4-amine]	
450 nM	CNC(=O)c1ccc2[nH]c(-c3cccc(N4CCC(NCCN5CCN(C(C)C)CC5)CC4)c3)cc2c1 [UPCDC30367, 2-(3-(4-((2-(4-Isopropylpiperazin-1-yl)ethyl)amino)piperidin-1-yl)phenyl)-N-methyl-1H-indole-5-carboxamide]	
> 50000 nM	CC(C)N1CCN(CCNC2CCN(c3cccc(-c4cc5ccccc5n4C)c3)CC2)CC1 [UPCDC30201, N-(2-(4-Isopropylpiperazin-1-yl)ethyl)-1-(3-(1-methyl-1H-indol-2-yl)phenyl)piperidin-4-amine]	effect of structural change on activity/potency (in words): ablates
100 nM	CC(C)N1CCN(CCNC2CCN(c3cccc(-c4cc5cc(C(N)=O)ccc5[nH]4)c3)CC2)CC1 [UPCDC30310, 2-(3-(4-((2-(4-Isopropylpiperazin-1-yl)ethyl)amino)piperidin-1-yl)phenyl)-1H-indole-5-carboxamide]	
390 nM	CC(C)N1CCN(CCNC2CCN(c3ccc4c(c3)-c3[nH]c5ccccc5c3CC4)CC2)CC1 [UPCDC30206, 1-(6,11-Dihydro-5H-benzo[a]carbazol-2-yl)-N-(2-(4-isopropylpiperazin-1-yl)ethyl)piperidin-4-amine]	
